# Results published in ChEMBL document CHEMBL1142030, “Identification of small molecule inhibitors of the hepatitis C virus RNA-dependent RNA polymerase from a pyrrolidine combinatorial mixture” (Bioorg Med Chem Lett, 2005).
# “And” between values parts separate entries of the source, which are not always exact repeats. Equal entries are not always repeated.
# Target: RNA-directed RNA polymerase (Hepacivirus hominis, UniProt O39930)
# Test: Inhibitory concentration against Hepatitis C virus RNA dependent RNA polymerase Nonstructural protein 5B
# Chain of RNA-directed RNA polymerase (O39930 whole entry): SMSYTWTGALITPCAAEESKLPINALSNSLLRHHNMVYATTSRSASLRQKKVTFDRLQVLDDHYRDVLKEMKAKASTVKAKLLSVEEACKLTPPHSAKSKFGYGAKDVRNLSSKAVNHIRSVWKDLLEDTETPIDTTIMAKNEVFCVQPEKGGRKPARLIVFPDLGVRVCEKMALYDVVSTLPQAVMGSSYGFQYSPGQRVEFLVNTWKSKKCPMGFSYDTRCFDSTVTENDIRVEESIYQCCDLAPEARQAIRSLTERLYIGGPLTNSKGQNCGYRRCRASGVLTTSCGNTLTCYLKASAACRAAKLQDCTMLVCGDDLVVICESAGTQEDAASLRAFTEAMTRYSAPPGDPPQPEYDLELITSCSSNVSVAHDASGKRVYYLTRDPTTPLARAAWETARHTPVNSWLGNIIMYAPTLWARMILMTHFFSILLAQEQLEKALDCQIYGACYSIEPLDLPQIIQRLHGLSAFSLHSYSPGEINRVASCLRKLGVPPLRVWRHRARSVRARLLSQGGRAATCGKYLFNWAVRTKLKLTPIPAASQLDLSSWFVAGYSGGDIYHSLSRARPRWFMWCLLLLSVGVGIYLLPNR
row,Compound,IC50
1,CC(C)C[C@@]1(C(=O)O)C[C@H](C(=O)O)[C@H](c2cccs2)N1C(=O)c1ccccc1C(F)(F)F,> 20000 nM
2,CC(C)C[C@@]1(C(=O)O)C[C@H](C(=O)O)[C@H](c2cccs2)N1C(=O)c1ccc([N+](=O)[O-])cc1,3200 nM
3,CC(C)C[C@@]1(C(=O)O)C[C@H](C(=O)O)[C@H](c2cccs2)N1C(=O)c1ccc(Cl)c(Cl)c1,600 nM
4,CC(C)C[C@@]1(C(=O)O)C[C@H](C(=O)O)[C@H](c2ccco2)N1C(=O)c1ccc(C(F)(F)F)cc1,800 nM
5,CC(C)C[C@@]1(C(=O)O)C[C@H](C(=O)O)[C@H](c2cccs2)N1C(=O)c1cccc(C(F)(F)F)c1,600 nM
6,CC(C)C[C@@]1(C(=O)O)C[C@H](C(=O)O)[C@H](c2ccccc2)N1C(=O)c1ccc(C(F)(F)F)cc1,700 nM
7,O=C(O)CC[C@@]1(C(=O)O)C[C@H](C(=O)O)[C@H](c2ccccc2)N1C(=O)c1ccc(C(F)(F)F)cc1,> 20000 nM
8,CC(C)C[C@@]1(C(=O)O)C[C@H](C(=O)O)[C@H](c2cccs2)N1C(=O)c1cccc2ccccc12,700 nM
9,CC(C)C[C@@]1(C(=O)O)C[C@H](C(=O)O)[C@H](c2cccs2)N1C(=O)c1ccc(C(F)(F)F)cc1,300 nM and 190 nM
10,CC(C)C[C@@]1(C(=O)O)C[C@H](C(=O)O)[C@H](c2cccs2)N1C(=O)c1ccncc1,> 20000 nM
11,Cc1ccc([C@H]2[C@@H](C(=O)O)C[C@@](CC(C)C)(C(=O)O)N2C(=O)c2ccc(C(F)(F)F)cc2)cc1,1000 nM
12,CCCCCCC(=O)N1[C@@H](c2cccs2)[C@@H](C(=O)O)C[C@@]1(CC(C)C)C(=O)O,> 20000 nM
13,CC(C)C[C@@]1(C(=O)O)C[C@H](C(=O)O)[C@H](c2nccs2)N1C(=O)c1ccc(C(F)(F)F)cc1,400 nM
14,CC(C)C[C@@]1(C(=O)O)C[C@H](C(=O)O)[C@H](C(C)C)N1C(=O)c1ccc(C(F)(F)F)cc1,500 nM
15,CC(C)C[C@@]1(C(=O)O)C[C@H](C(=O)O)[C@H](c2ccccn2)N1C(=O)c1ccc(C(F)(F)F)cc1,700 nM
16,O=C(O)[C@H]1C[C@@](Cc2ccccc2)(C(=O)O)N(C(=O)c2ccc(C(F)(F)F)cc2)[C@H]1c1ccccc1,1900 nM
17,COc1ccccc1[C@H]1[C@@H](C(=O)O)C[C@@](CC(C)C)(C(=O)O)N1C(=O)c1ccc(C(F)(F)F)cc1,5100 nM
18,CC(C)C[C@@]1(C(=O)O)C[C@H](C(=O)O)[C@H](c2cccs2)N1C(=O)c1ccccc1,11400 nM
19,CC(C)C[C@@]1(C(=O)O)C[C@H](C(=O)O)[C@H](c2cccs2)N1C(=O)c1ccc(Cl)cc1,1700 nM
20,C[C@@]1(C(=O)O)C[C@H](C(=O)O)[C@H](c2ccccc2)N1C(=O)c1ccc(C(F)(F)F)cc1,> 20000 nM
21,NCCC[C@@]1(C(=O)O)C[C@H](C(=O)O)[C@H](c2ccccc2)N1C(=O)c1ccc(C(F)(F)F)cc1,> 20000 nM
22,O=C(O)[C@H]1C[C@@](Cc2ccc(O)cc2)(C(=O)O)N(C(=O)c2ccc(C(F)(F)F)cc2)[C@H]1c1ccccc1,> 20000 nM
23,CC(C)C[C@@]1(C(=O)O)C[C@H](C(=O)O)[C@H](c2ccc(Cl)cc2)N1C(=O)c1ccc(C(F)(F)F)cc1,900 nM
24,CCCC[C@@]1(C(=O)O)C[C@H](C(=O)O)[C@H](c2ccccc2)N1C(=O)c1ccc(C(F)(F)F)cc1,3300 nM
25,O=C(O)[C@H]1C[C@@H](C(=O)O)N(C(=O)c2ccc(Cl)c(Cl)c2)C1 (racemic),12000 nM
26,O=C(O)[C@H]1C[C@@H](C(=O)O)N(C(=O)c2ccc(C(F)(F)F)cc2)C1 (racemic),7600 nM
27,"CC(C)C[C@@]1(C(=O)O)C[C@H](C(=O)O)C(c2cccs2)N1C(=O)c1ccc(C(F)(F)F)cc1 (single isomer, unassigned)",18000 nM
